{"source": "patent US20100255004A1", "about": "“RECEPTOR TYROSINE KINASE PROFILING” (Dana Farber Cancer Institute, priority 2007, published 2010)", "key": {"[1]": {"test_system": "PI3K signaling (p85α/GAB1 complex, P-AKT, P-S6)", "assay": "GAB1 immunoprecipitation and immunoblots of P-AKT and P-S6 in U87MG-EGFR* cells", "type": "cell-based, human", "conditions": "U87MG-EGFR* cells (PTEN mutant), 10 μM each inhibitor (FIG. 3C)", "description": "U87MG parental cells or cells constitutively expressing wt EGFR, the activating vIII deletion mutant (EGFR*) or the vIII mutant with an inactivating mutation in its kinase domain (EGFR*-KD) were immunoprecipitated with an antibody to the RTK/PI-3K adaptor protein, GAB1 (left panel), then immunoblots were probed with the indicated antibodies. […] Whole cell extracts (WCE) from the same cells were immunoblotted with the indicated antibodies. […] C. […] Bottom panel: Un-immunoprecipitated whole cell extracts were immunoblotted with the indicated antibodies. […] Error bars indicate SEM, n=4. […] U87MG-EGFR* cells were transfected with empty vector, HRASV12, myristoylated-AKT, or p110α-CAAX, then treated with 10 μM each of erlotinib (E), SU11274 (S), and imatinib (I) in 0.05% serum-containing medium for 72 hours prior to assaying cell viability.\nWe also immunoblotted whole cell extracts with antibodies against MAPK and phosphorylated versions of AKT, MAPK, and S6 (FIG. 3C, bottom panel):\nFollowing 30 min incubation in lysis buffer at 4° C., lysates were cleared by centrifugation at 10 k 10 min 4° C., then protein concentrations were determined by BioRad DC Protein Assay. […] Co-immunoprecipitated proteins were detected with either mouse or rabbit TrueBlot HRP conjugated secondaries (eBioscience). • Antibody arrays."}, "[2]": {"molecular_target": "T1, MET (Homo sapiens, UniProt P08581)", "T1 sequence (P08581 25-1390)": "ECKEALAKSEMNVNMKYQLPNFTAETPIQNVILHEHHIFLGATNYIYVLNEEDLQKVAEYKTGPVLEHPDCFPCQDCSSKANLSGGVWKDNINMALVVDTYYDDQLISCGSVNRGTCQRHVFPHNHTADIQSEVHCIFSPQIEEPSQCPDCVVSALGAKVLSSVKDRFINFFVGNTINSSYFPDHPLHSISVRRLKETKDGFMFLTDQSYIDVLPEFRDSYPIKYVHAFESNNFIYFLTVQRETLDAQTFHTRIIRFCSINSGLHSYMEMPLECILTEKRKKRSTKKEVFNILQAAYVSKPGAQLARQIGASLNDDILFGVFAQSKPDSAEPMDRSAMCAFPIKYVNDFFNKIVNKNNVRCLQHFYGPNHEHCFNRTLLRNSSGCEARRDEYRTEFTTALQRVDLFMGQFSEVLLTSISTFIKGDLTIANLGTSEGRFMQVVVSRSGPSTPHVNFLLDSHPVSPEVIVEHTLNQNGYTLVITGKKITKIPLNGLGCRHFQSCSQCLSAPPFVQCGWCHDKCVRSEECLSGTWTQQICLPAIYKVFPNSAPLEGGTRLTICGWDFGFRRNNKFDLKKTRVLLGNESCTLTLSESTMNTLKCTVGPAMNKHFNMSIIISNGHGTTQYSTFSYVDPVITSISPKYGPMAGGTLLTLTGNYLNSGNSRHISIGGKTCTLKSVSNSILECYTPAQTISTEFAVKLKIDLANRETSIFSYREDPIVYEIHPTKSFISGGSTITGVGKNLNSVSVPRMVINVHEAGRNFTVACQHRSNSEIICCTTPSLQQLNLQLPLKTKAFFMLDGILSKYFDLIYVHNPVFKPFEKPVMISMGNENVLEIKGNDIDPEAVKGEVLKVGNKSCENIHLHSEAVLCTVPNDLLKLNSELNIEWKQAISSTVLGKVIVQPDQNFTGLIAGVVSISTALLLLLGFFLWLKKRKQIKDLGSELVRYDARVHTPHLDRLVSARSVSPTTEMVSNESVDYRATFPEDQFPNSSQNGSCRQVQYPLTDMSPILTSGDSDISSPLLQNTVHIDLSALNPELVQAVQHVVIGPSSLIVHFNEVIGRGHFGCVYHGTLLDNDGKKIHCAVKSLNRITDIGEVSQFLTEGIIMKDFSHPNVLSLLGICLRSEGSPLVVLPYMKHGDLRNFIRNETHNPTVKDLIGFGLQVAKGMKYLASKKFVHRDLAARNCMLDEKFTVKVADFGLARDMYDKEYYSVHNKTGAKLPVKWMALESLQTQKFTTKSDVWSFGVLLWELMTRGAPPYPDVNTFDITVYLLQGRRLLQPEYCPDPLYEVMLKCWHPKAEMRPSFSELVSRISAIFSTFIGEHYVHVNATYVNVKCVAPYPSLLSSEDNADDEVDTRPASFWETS", "assay": "Immunoblot of P-MET in LN382 and LN18 cells", "type": "cell-based", "set-up": "endogenous in cells; host or cells: LN382 and LN18 glioma cells", "conditions": "1 μM, 24 hours (FIG. 4F)", "description": "A-E. The glioma cell lines LN18 (wt PTEN), SF767 (wt PTEN), LN382 (mut PTEN) and LNZ308 (mut PTEN) were incubated in 0.05% serum-containing medium cells and treated with 10 μM erlotinib (E or T), 10 μM SU11274 (S), and/or 10 μM imatinib (I or G) and immunoblotted as in FIG. 3. […] LN382 and LN18 cells were treated with 1 μM each RTK inhibitor for 24 hours, then immunoblotted with antibodies to P-PDGFRβ and P-MET."}, "[3]": {"test_system": "PDGFR", "assay": "p-PDGFR in LNZ308 cells", "type": "cell-based, human", "source_text": "We then correlated inhibition of PI3K activity with biological effects of various combinations of RTK inhibitor treatment regimens. […] Second, we are mindful of the limitation of detection sensitivity by current antibody array technology and that a particular RTK may not be represented or be activated at an undetectable but biologically-relevant level. As shown in FIG. 4C-E, combination inhibition of RTKs in LN382 and LNZ308, both PTEN mutant GBM lines, effectively extinguished PI3K activity."}, "[4]": {"molecular_target": "T2, PDGFRβ (Homo sapiens, UniProt P09619)", "T2 construct": "endogenous in cells; host or cells: LN382 and LN18 glioma cells", "T2 sequence (P09619 33-1106)": "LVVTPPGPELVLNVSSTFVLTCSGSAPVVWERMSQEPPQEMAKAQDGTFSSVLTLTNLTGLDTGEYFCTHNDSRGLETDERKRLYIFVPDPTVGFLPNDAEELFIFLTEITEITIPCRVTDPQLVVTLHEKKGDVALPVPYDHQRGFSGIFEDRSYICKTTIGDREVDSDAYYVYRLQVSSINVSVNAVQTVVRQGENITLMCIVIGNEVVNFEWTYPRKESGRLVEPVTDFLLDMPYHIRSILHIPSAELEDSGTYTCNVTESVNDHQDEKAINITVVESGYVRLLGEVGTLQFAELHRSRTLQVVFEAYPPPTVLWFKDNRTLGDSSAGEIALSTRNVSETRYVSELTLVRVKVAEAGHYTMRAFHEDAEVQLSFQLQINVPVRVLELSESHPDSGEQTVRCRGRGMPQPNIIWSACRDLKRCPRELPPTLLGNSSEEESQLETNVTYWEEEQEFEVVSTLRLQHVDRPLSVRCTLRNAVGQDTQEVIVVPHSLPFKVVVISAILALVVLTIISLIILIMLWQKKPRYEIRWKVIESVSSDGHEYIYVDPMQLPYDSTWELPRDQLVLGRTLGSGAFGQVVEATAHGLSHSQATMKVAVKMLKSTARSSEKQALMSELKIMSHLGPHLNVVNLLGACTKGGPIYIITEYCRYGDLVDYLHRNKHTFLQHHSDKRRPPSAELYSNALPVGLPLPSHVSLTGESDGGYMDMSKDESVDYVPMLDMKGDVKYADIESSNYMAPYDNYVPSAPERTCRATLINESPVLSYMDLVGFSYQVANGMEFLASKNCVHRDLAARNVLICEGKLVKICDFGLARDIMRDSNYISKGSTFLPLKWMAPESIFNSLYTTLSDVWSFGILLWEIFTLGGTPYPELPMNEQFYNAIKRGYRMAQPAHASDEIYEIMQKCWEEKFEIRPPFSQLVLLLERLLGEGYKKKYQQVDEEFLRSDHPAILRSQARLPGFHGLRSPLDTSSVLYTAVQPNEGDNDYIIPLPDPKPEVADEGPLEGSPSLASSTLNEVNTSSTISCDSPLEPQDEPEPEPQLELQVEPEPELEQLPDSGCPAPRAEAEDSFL", "assay": "Immunoblot of P-PDGFRβ in LN382 and LN18 cells", "type": "cell-based", "conditions": "1 μM, 24 hours (FIG. 4F)", "source_text": "DNA is labeled with Hoechst 33342."}, "[5]": {"molecular_target": "T1, MET", "assay": "RTK antibody array, phosphorylation of MET in U87MG-EGFR* cells", "type": "cell-based", "set-up": "endogenous in cells", "conditions": "10 μM, RTK antibody array (FIG. 3B)", "description": "Error bars indicate SEM, n=4.\nFollowing 30 min incubation in lysis buffer at 4° C., lysates were cleared by centrifugation at 10 k 10 min 4° C., then protein concentrations were determined by BioRad DC Protein Assay. […] Tyrosine-phosphorylated proteins were visualized by separation on NuPAGE 3-8% Tris-Acetate gels (Invitrogen), blotted onto nitrocellulose, blocked with 3% Immunoblot Blocking Reagent (Upstate), then incubated with anti-phosphotyrosine antibody (4G10, Upstate). […] Co-immunoprecipitated proteins were detected with either mouse or rabbit TrueBlot HRP conjugated secondaries (eBioscience). • Antibody arrays. Cells were harvested as for immunoprecipitations above. Snap-frozen tumors were thawed in immunoprecipitation lysis buffer, homogenized by hand 50× with disposable 1.5 mL pestles, incubated 30 min 4° C. with inversion, homogenized 50×, then cleared by centrifugation at 10 k 10 min 4° C. Proteins were quantitated as above. RTK antibody arrays were purchased from R&D Systems (#ARY-001) and performed as recommended but with 2 mg protein lysate per array. • Soft agar colony formation."}}, "note": "Counter-ions that a name gives are not always drawn.", "data": [{"smiles": "Cc1ccc(NC(=O)c2ccc(CN3CCN(C)CC3)cc2)cc1Nc1nccc(-c2cccnc2)n1", "note": "[Gleevec™, Imatinib mesylate]", "values": [{"measurement": "PI3K association with GAB1 and downstream activation of AKT and S6", "setting": "[1]", "result": "did not significantly effect PI3K activation"}, {"measurement": "phosphorylation of MET", "setting": "[2]", "result": "decrease in phosphorylation of MET"}]}, {"smiles": "Cc1[nH]c(/C=C2\\C(=O)Nc3ccc(S(=O)(=O)N(C)c4cccc(Cl)c4)cc32)c(C)c1C(=O)N1CCN(C)CC1", "note": "[SU11274]", "values": [{"measurement": "PI3K association with GAB1 and downstream activation of AKT and S6", "setting": "[1]", "result": "no discernable effect"}, {"measurement": "p-PDGFR", "setting": "[3]", "result": "diminishes p-PDGFR"}, {"measurement": "P-PDGFRβ", "setting": "[4]", "result": "decrease in P-PDGFRβ"}, {"measurement": "phosphorylation of intended target RTK (P-MET)", "setting": "[5]", "result": "effectively blocked phosphorylation"}]}]}
